Patent publication US12478081B2, “Application of aspartic acid derivative in preparing animal feed additive” (ANIPHA TECHNOLOGIES PTY LTD, priority 2018, dated 2025)
Marks after values point to notes of the source that are not given here.

Columns and labels:
laying hens = experiment: Breeding test: production performance of laying hens; assay type: in vivo, Jingbai laying hens; conditions: 158 days; for ADFI / EPR (%) / EW (g): 500 ppm in basal daily ration; for feed-to-egg ratio: Table 4, 500 ppm in basal daily ration
Description: The test adopted a single-factor random design. 420 147-day-old Jingbai laying hens with similar body weights were selected and randomly divided into 7 treatment groups, with 3 replications per group and 20 Jingbai laying hens (half of male and female) per replication. The poultry houses and utensils were sterilized before the test. During the test period, the Jingbai laying hens were cage cultured in the same laying poultry house under the same feeding and management conditions. The basal daily ration was mainly corn-soybean meal, and no other antioxidant ingredients or growth promoters were added additionally during the entire feeding process. The test groups include a control group and test groups I-VII. The basal daily ration was fed for the control group I only, and 500 ppm of different aspartic acid derivatives were added into the basal daily ration for the test groups II-VII, as shown in Table 3. The pre-feeding period was 10 days, and the test period was 158 days. The test laying hens were free to drink water and eat feed, and were fed twice a day.
Parameter statistics: During the test period, taking each repetition as a unit, the total egg number, the egg production, and the feed intake were recorded every day, and the egg production rate (EPR), the average daily feed intake (ADFI, g/d), the egg weight (EW, g) and the feed-to-egg ratio (FER) of the laying hens during the entire test were calculated.
Calculation formulas are as follows: […]
The test data was statistically analyzed using SPSS18 software. First, a one-way analysis of variance (ANOVA) was performed on the data. If the difference between treatments is significant, Duncan's method was used for multiple comparisons, and the significance level was 0.05.

grass carps = experiment: Use of aspartic acid derivatives in feeds for fish (grass carp breeding test); assay type: in vivo; conditions: for Average final weight (g) / FCR / Weight gain (%): grass carps, 3000 ppm in feed, 8 weeks; for effect on weight gain of grass carps (in words): 3000 ppm, compared with the control group
Description: Test fish: The test fishes used were healthy and lively grass carp fingerlings with uniform size, which were fed in large cages for 4 weeks before being used for formal breeding test. The experimental system was a small floating cage (specification: 1.1×1.1×1.1 m^3), each small floating cage being equipped with an aeration head, providing aeration 24 h a day. Both the small floating cage and the temporary cage were placed in a 3500 m^2 pond of the test field, the depth of the pond was about 1.5 m, and the water of the pond was fully aerated in the bottom of the pond. 560 grass carps that were hungry for 1 day were randomly divided into 7 groups, with 4 replications per group and 20 grass carps per replication. By taking each replication as a unit, all of the grass carps were weighed, and then placed in 28 cages and fed with test feeds containing different test samples at the same content level.
Test feeds: The feeds for the test were self-prepared based on the formulations in Table 6, and different test samples were added at the same content level for different test groups according to Table 7, respectively.
The feed raw materials used were ground by ultrafine grinding and fed into a puffing machine produced by Jiangsu Muyang Group Co., Ltd. to make 3 mm floating puffed feed, where the mold clearing temperature was 130° C., 3% soybean oil was sprayed using an oil spraying equipment, and the obtained feed was sealed and stored in a cool place for later use.
Test management: The test adopted controlled artificial feeding, and the feeding amount was adjusted once a week. The feeding levels for all the groups (based on the initial fish weight) were exactly the same, and the grass carps were fed twice a day (7:30 and 15:00). The total feeding amount was 580 g/replication test group. The test period was 8 weeks. During the test, the water quality was regularly monitored. The water temperature during the whole breeding process was 26.88±3.08° C., DO>5.0 mg O L^−1, pH 7.8, ammonia nitrogen<0.50 mg N L^−1, nitrite nitrogen<0.05 mg N L^−1.
Parameter statistics: During the test, after the provisioning of feeds has been stopped for 1 day, fishes in each cage were weighed as a whole, and the weight gain (WG, %) and the feed conversion ratio (FCR) were calculated. Calculation formulas are as follows:
[formula] [formula] (3) Test Results

Row | Compound | ADFI (laying hens) [g/day] | EPR (%) (laying hens) | EW (g) (laying hens) | feed-to-egg ratio (laying hens) | Average final weight (g) (grass carps) | FCR (grass carps) | Weight gain (%) (grass carps) | effect on weight gain of grass carps (in words) (grass carps)
1 | NC(=O)NC(CC(=O)O)C(=O)O (racemic) [Compound 1, N-carbamoyl-DL-aspartic acid] | 113.44 ± 1.55 | 85.80 ± 0.14^b % | 55.49 ± 0.38^b g | 2.04 ± 0.02 | 774.5 ± 4.8^b g | 1.650 ± 0.011^b | 83.19 ± 1.41^b % | –
2 | CCOC(=O)CC(NC(N)=O)C(=O)OCC (racemic) [Compound 2, diethyl N-carbamoyl-DL-aspartate] | 115.19 ± 3.14 | 86.28 ± 0.20^b % | 55.94 ± 0.37^b g | 2.06 ± 0.04 | 772.0 ± 6.3^b g | 1.650 ± 0.008^b | 83.74 ± 1.53^b % | significant improvement effect
3 | NCC(=O)NC(CC(=O)O)C(=O)O (racemic) [Compound 8, N-glycyl-DL-aspartic acid] | 113.01 ± 2.31 | 84.86 ± 0.24^c % | 54.98 ± 0.39^a g | 2.06 ± 0.03 | 778.2 ± 4.3^b g | 1.671 ± 0.008^b | 80.62 ± 1.46% | significant improvement effect
4 | NCCCC(=O)NC(CC(=O)O)C(=O)O (racemic) [Compound 9, N-(4-aminobutyryl)-DL-aspartic acid] | 113.64 ± 2.43 | 86.09 ± 0.18^b % | 55.44 ± 0.37^b g | 2.05 ± 0.04 | 781.8 ± 4.4^b g | 1.662 ± 0.008^b | 80.76 ± 1.52% | –
5 | NCCCCCCCCCC(=O)NC(CC(=O)O)C(=O)O (racemic) [Compound 10, N-(10-aminodecanoyl)-DL-aspartic acid] | 119.31 ± 1.84 | 85.24 ± 0.18^c % | 57.45 ± 0.47^c g | 2.08 ± 0.03 | 781.0 ± 5.1^b g | 1.653 ± 0.009^b | 81.58 ± 0.96% | –
6 | NCCCCCCCCCCCCCC(=O)NC(CC(=O)O)C(=O)O (racemic) [Compound 11, N-(14-aminomyristoyl)-DL-aspartic acid] | 115.13 ± 2.91 | 85.24 ± 0.17^c % | 55.45 ± 0.35^b g | 2.08 ± 0.04 | 769.2 ± 4.5^ab g | 1.671 ± 0.008^b | 82.32 ± 1.24% | –
